# Assay results published in PMC8763920, “Unprotected peptide macrocyclization and stapling via a fluorine-thiol displacement reaction” (Nature Communications, 2022).
# *1 amine or outer side, *2 acyl side, *3 side chain or, on linkers, in order; H or OH if unused. Where a SMILES comes first, the peptide text is derived from it. Bridges are numbered along the chain shown (N, C = ends). [ ]: non-standard residue; d: D form. The star is where a group is joined. Benzene(1,3-(CH2SCH2CO)2) = O=C(CSCc1cccc(CSCC(=O)[*:2])c1)[*:1]; FITC = O=C1OC2(c3ccc(O)cc3Oc3cc(O)ccc32)c2ccc(NC(=S)*)cc21; X2 = O=C(CSCCCCCCCSCC(=O)[*:2])[*:1]; dDap = NC[C@@H](N)C(=O)O; Dap = NC[C@H](N)C(=O)O; βAla = NCCC(=O)O
# Experiments:
# [1] = tested on: DLD-1 cells; experiment: 5-day growth inhibition of DLD-1 cancer cells; assay type: cell-based; conditions: CellTiter Glo; for EC50: 5 days, 1000 cells per well, n = 3, read-out: EC50, inhibition of DLD-1 cell growth
# Experimental: (§1) For growth inhibition by Axin peptides, DLD-1 cells were cultured and maintained as mentioned before. Right before the assay, cells were resuspended in fresh RPMI media supplemented with 10% FBS, 100 IU/mL penicillin, and 100 µg/mL streptomycin, and plated onto 96-well white flat-bottom plates at 1000 cells per well (90 µL media/well). After overnight incubation, peptide samples were serially diluted as 10× stock in PBS buffer (10% DMSO), and were added to the plated cells at 10 µL stock solution/well in triplicate to make final treatment concentrations of 0, 0.0625, 0.125, 0.25, 0.5, 1, 2, 4, 8, 16 µM. The wells on the edges of plates were filled with PBS buffer to avoid unwanted evaporation of samples. The samples on the plates were incubated at 37 °C, 5% CO2 for 5 days, and the cell viability was evaluated by CellTiter Glo (Promega). The luminescence signals were recorded by the H1 synergy plate reader (Biotek) using the Gen5 software, and were normalized against the control groups (100%) for which cells were only treated with the vehicle (PBS/1% DMSO). Control HEK293 cells were cultured in DMEM media supplemented with 10% FBS, 1% penicillin/streptomycin at 37 °C, 5% CO2, then incubated with peptide samples and measured for viability in the same manner as mentioned above. For Axin peptide analogues’ time-dependent cytotoxicity, peptide analogues were mixed with cells (1000 cells per well) at a final concentration of 0, 5, 10, and 15 µM. The cell viabilities were meaured via CellTiter Glo after incubation of 1 day, 2 days, and 4 days, respectively. […] After 24 h of incubation, the cell viabilities were measured and normalized against the vehicle control groups the same as mentioned above.
# [2] = tested on: HeLa cells; experiment: Cell penetration of STAD peptides, confocal imaging; assay type: cell-based; conditions: 5 µM peptide, 2 h, confocal microscopy, 78 normalized as 1, mean ± SEM
# Experimental: Hoechst 33342 dye and FITC-labelled peptides were excited with 405 and 488 nm lasers (Coherent OBIS), respectively. Images were analysed with NIH ImageJ software. Using the “analyse particles” function, we measured the area and intensity of individual cells (Supplementary Fig. 34a)[87]. […] However, from the distribution of data we found the best fit curve to be lognormal. Outliers were then removed using a Grubbs test (Supplementary Fig. 35b)[88]. We determined the optimal bin size for the histogram using the Freedman–Draconis rule[89]. The mean fluorescence intensity from each treatment group was calculated from n ≥ 100 cells. Error bars represented SE. P values were calculated by two sided Welch’s t test for comparison with internalization of RCM-stapled control peptides.
# For FITC-labelled SAHBA analogues, 5 μM of each was incubated with Jurkat cells for 4 h[13]. The rest of the imaging procedures were done the same as mentioned above. Likewise, 5 µM of STAD peptides were incubated with HeLa cells for 2 h[71], followed by similar imaging studies; and 2 µM of p53 peptide analouges were mixed with HCT116 wt cells for 4 h before the imaging analysis of their cellular uptake. Cell samples treated with STAD or p53 series of peptide analogues were also simulatenously stained by propidium iodide (PI) to ensure the cell viability and membrane integrity.
# [3] = tested on: DLD-1 cells; experiment: Time-dependent cytotoxicity/growth inhibition of Axin peptide analogues; assay type: cell-based; conditions: 0, 5, 10, 15 µM; after 48 h of incubation; CellTiter Glo
# Experimental: as §1, with “The wells on the edges of plates were filled with PBS buffer to avoid unwanted evaporation of samples.” left out, “above.” for “above. For Axin peptide analogues’ time-dependent cytotoxicity, peptide analogues were mixed with cells (1000 cells per well) at a final concentration of 0, 5, 10, and 15 µM. The cell viabilities were meaured via CellTiter Glo after incubation of 1 day, 2 days, and 4 days, respectively.”
# [4] = tested on: β-catenin mediated transcription; experiment: TOPFlash luciferase reporter assay; assay type: cell-based; conditions: DLD-1 cells, 15 μM peptide, 24 h
# Experimental: For evaluation of Axin peptide analogues, DLD-1 cells were cultured in 96-well flat bottom plates up to 70–80% confluency and were transfected with 200 ng M50 TOPFlash plasmid (a gift from Professor Raymond Habas, Temple Biology) and 50 ng pRL-TK plasmid (Promega). 12 h after transfection, cells were treated with DMSO vehicle or 15 μM of Axin peptide analogues for another 24 h. Luciferase activity was measured using the Dual-Glo luciferase assay kit (Promega) on a Biotek Synergy H1 plate reader using the Gen5 software. Data were processed as firefly: Renilla luciferase ratio for each control or treatment group, and were further normalized against the vehicle control group (100%) as the Relative Activities.
# [5] = tested on: HEK293 cells; experiment: 5-day growth of HEK293 control cells; assay type: cell-based; conditions: 5 days, CellTiter Glo, up to 16 µM
# Experimental: as §1, with “The wells on the edges of plates were filled with PBS buffer to avoid unwanted evaporation of samples.” left out, “above.” for “above. For Axin peptide analogues’ time-dependent cytotoxicity, peptide analogues were mixed with cells (1000 cells per well) at a final concentration of 0, 5, 10, and 15 µM. The cell viabilities were meaured via CellTiter Glo after incubation of 1 day, 2 days, and 4 days, respectively.”
# [6] = tested on: DLD-1 cells; experiment: Cell viability assay for imaging studies, Axin analogues; assay type: cell-based; conditions: 10 µM, 12 h incubation, CellTiter-Glo
# Experimental: For Jurkat cells, after imaging studies with SAHBA analogues (5 µM, 4 h of incubation), viabilities were measured by mixing with the CellTiter-Glo reagent and the chemiluminescence signals were recorded and processed the same as metioned above. Similarly, confocal imaging of DLD-1 cells for the penetration pathway studies were followed by viability measurements. Cells treated with vehicle groups were also analysed and counted as the 100% control.
# [7] = circular dichroism; conditions: water; pH ns; 25 °C; 70 uM
# [8] = tested on: p53 wild-type HCT-116 cells; assay type: cell-based; conditions: human
smiles,measurement,setting,value
"CC[C@H](C)[C@@H]1NC(=O)[C@@](C)(NC(=O)[C@H](CCC(N)=O)NC(=O)[C@@H]2CCCN2C(=O)[C@H](Cc2c[nH]c3ccccc23)NC(=O)[C@H](CCCNC(=N)N)NC(=O)COCCOCCNC(=S)Nc2ccc3c(c2)C(=O)OC32c3ccc(O)cc3Oc3cc(O)ccc32)CCC/C=C\CCC[C@@](C)(C(=O)N[C@@H](Cc2c[nH]cn2)C(=O)N[C@H](C(=O)N[C@@H](CCCNC(=N)N)C(=O)N[C@@H](CCCNC(=N)N)C(=O)N[C@H](C(=O)N[C@@H](Cc2c[nH]c3ccccc23)C(=O)N[C@@H](CCCNC(=N)N)C(N)=O)C(C)C)C(C)C)NC(=O)[C@H](CC(=O)O)NC(=O)[C@H](CC(C)C)NC1=O [compound 68, reference compound]",concentration at which significant growth inhibition was first displayed,"[1]; DLD-1, 5 days, highest tested 16 µM",16 µM
"CC[C@H](C)[C@@H]1NC(=O)[C@@H](NC(=O)[C@H](CC(=O)O)NC(=O)[C@H](C)NC(=O)[C@H](CC(C)C)NC(=O)[C@H](CCC(N)=O)NC(=O)[C@H](CCCCN)NC(=O)[C@H](C)NC(=O)[C@H](Cc2ccc(O)cc2)NC(=O)[C@H](CCCCN)NC(=O)[C@H](CCCCN)NC(=O)CCNC(=S)Nc2ccc3c(c2)C(=O)OC32c3ccc(O)cc3Oc3cc(O)ccc32)CNC(=O)CSCc2cccc(c2)CSCC(=O)NC[C@@H](C(=O)N[C@@H](C)C(=O)N[C@H](C(=O)N[C@@H](CCC(=O)O)C(N)=O)[C@@H](C)O)NC(=O)[C@H](CCCCN)NC(=O)[C@H]([C@@H](C)CC)NC1=O [compound 75] ({FITC-βAla}-KKYAKQLAD[Dap]IIK[Dap]ATE-NH2; linker 10-14 via Benzene(1,3-(CH2SCH2CO)2))",mean intensity versus RCM stapled STAD 78,[2],2.92 ± 0.08 fold
CC[C@H](C)[C@@H]1NC(=O)[C@@H](NC(=O)[C@H](CCC(N)=O)NC(=O)[C@@H]2CCCN2C(=O)[C@H](Cc2c[nH]c3ccccc23)NC(=O)[C@H](CCCNC(=N)N)NC(=O)COCCOCCNC(=S)Nc2ccc3c(c2)C(=O)OC32c3ccc(O)cc3Oc3cc(O)ccc32)CNC(=O)CSCc2cccc(c2)CSCC(=O)NC[C@@H](C(=O)N[C@@H](Cc2c[nH]cn2)C(=O)N[C@H](C(=O)N[C@@H](CCCNC(=N)N)C(=O)N[C@@H](CCCNC(=N)N)C(=O)N[C@H](C(=O)N[C@@H](Cc2c[nH]c3ccccc23)C(=O)N[C@@H](CCCNC(=N)N)C(N)=O)C(C)C)C(C)C)NC(=O)[C@H](CC(=O)O)NC(=O)[C@H](CC(C)C)NC1=O [compound 65],effects on DLD-1 cells over a time course of 24–96 h,[3],significant effects
same,EC50,[1],2300 ± 400 nM
same,inhibition of β-catenin mediated transcription (TOPFlash),[4],strong inhibition
same,effect on growth of HEK293 control cells,[5],little effects
same,effect on viability of DLD-1 cells,[6],did not affect the viability
CC(=O)N[C@@H](CCC(N)=O)C(=O)N[C@@H](CO)C(=O)N[C@@H](CCC(N)=O)C(=O)N[C@@H](CCC(N)=O)C(=O)N[C@H](C(=O)N[C@@H](Cc1ccccc1)C(=O)N[C@H]1CNC(=O)CSCCCCCCCCSCC(=O)NC[C@H](C(=O)N[C@@H](CCC(N)=O)C(=O)N[C@@H](CC(N)=O)C(N)=O)NC(=O)[C@H](CC(C)C)NC(=O)[C@H](CC(C)C)NC(=O)[C@H](CCCNC(=N)N)NC(=O)[C@H](Cc2c[nH]c3ccccc23)NC(=O)[C@H](CC(C)C)NC(=O)[C@H](CC(N)=O)NC1=O)[C@@H](C)O,helicity,[7],37%
CC[C@H](C)[C@@H]1NC(=O)[C@@H](NC(=O)[C@H](CCC(=O)O)NC(=O)[C@@H]2CCCN2C(=O)[C@H](CC(N)=O)NC(=O)[C@H](CCC(=O)O)NC(C)=O)CNC(=O)CSCCCCCCCSCC(=O)NC[C@H](C(=O)N[C@@H](Cc2c[nH]cn2)C(=O)N[C@H](C(=O)N[C@@H](CCC(N)=O)C(=O)N[C@@H](CCCNC(=N)N)C(=O)N[C@H](C(=O)N[C@@H](CCSC)C(N)=O)C(C)C)C(C)C)NC(=O)[C@H](CC(=O)O)NC(=O)[C@H](CC(C)C)NC1=O (Ac-ENPE[Dap]ILD[dDap]HVQRVM-NH2; linker 5-9 via X2),helicity,[7],25%
CC(=O)N[C@@H](CCC(N)=O)C(=O)N[C@@H](CO)C(=O)N[C@@H](CCC(N)=O)C(=O)N[C@@H](CCC(N)=O)C(=O)N[C@H](C(=O)N[C@@H](Cc1ccccc1)C(=O)N[C@H]1CNC(=O)CSCc2ccc(cc2)CSCC(=O)NC[C@@H](C(=O)N[C@@H](CCC(N)=O)C(=O)N[C@@H](CC(N)=O)C(N)=O)NC(=O)[C@H](CC(C)C)NC(=O)[C@H](CC(C)C)NC(=O)[C@H](CCCNC(=N)N)NC(=O)[C@H](Cc2c[nH]c3ccccc23)NC(=O)[C@H](CC(C)C)NC(=O)[C@H](CC(N)=O)NC1=O)[C@@H](C)O [compound 82],helicity,[7],61%
same,EC50,[8],660 ± 190 nM
CC[C@H](C)[C@@H]1NC(=O)[C@@H](NC(=O)[C@H](CCC(N)=O)NC(=O)[C@@H]2CCCN2C(=O)[C@H](Cc2c[nH]c3ccccc23)NC(=O)[C@H](CCCNC(=N)N)NC(=O)COCCOCCNC(=S)Nc2ccc3c(c2)C(=O)OC32c3ccc(O)cc3Oc3cc(O)ccc32)CNC(=O)CSCc2cccc(c2)CSCC(=O)NC[C@H](C(=O)N[C@@H](Cc2c[nH]cn2)C(=O)N[C@H](C(=O)N[C@@H](CCCNC(=N)N)C(=O)N[C@@H](CCCNC(=N)N)C(=O)N[C@H](C(=O)N[C@@H](Cc2c[nH]c3ccccc23)C(=O)N[C@@H](CCCNC(=N)N)C(N)=O)C(C)C)C(C)C)NC(=O)[C@H](CC(=O)O)NC(=O)[C@H](CC(C)C)NC1=O [compound 67],effects on DLD-1 cells over a time course of 24–96 h,[3],significant effects
same,EC50,[1],9800 ± 2000 nM
same,inhibition of β-catenin mediated transcription (TOPFlash),[4],strong inhibition
same,effect on growth of HEK293 control cells,[5],little effects
same,effect on viability of DLD-1 cells,[6],did not affect the viability
CC(=O)N[C@@H](CCC(N)=O)C(=O)N[C@@H](CO)C(=O)N[C@@H](CCC(N)=O)C(=O)N[C@@H](CCC(N)=O)C(=O)N[C@H](C(=O)N[C@@H](Cc1ccccc1)C(=O)N[C@H]1CNC(=O)CSCc2ccc(cc2)-c2ccc(cc2)CSCC(=O)NC[C@H](C(=O)N[C@@H](CCC(N)=O)C(=O)N[C@@H](CC(N)=O)C(N)=O)NC(=O)[C@H](CC(C)C)NC(=O)[C@H](CC(C)C)NC(=O)[C@H](CCCNC(=N)N)NC(=O)[C@H](Cc2c[nH]c3ccccc23)NC(=O)[C@H](CC(C)C)NC(=O)[C@H](CC(N)=O)NC1=O)[C@@H](C)O,helicity,[7],18%
CC(=O)N[C@@H](CCC(N)=O)C(=O)N[C@@H](CO)C(=O)N[C@@H](CCC(N)=O)C(=O)N[C@@H](CCC(N)=O)C(=O)N[C@H](C(=O)N[C@@H](Cc1ccccc1)C(=O)N[C@H]1CNC(=O)CSCCCCCCCSCC(=O)NC[C@H](C(=O)N[C@@H](CCC(N)=O)C(=O)N[C@@H](CC(N)=O)C(N)=O)NC(=O)[C@H](CC(C)C)NC(=O)[C@H](CC(C)C)NC(=O)[C@H](CCCNC(=N)N)NC(=O)[C@H](Cc2c[nH]c3ccccc23)NC(=O)[C@H](CC(C)C)NC(=O)[C@H](CC(N)=O)NC1=O)[C@@H](C)O,helicity,[7],40%
